Patent US9115073B2, “1,3-diphenylpropane derivatives, preparations and uses thereof” (GENFIT, priority 2011, dated 2015)

Assays:
Format in all cases: cell-based
[1] = target: T1, hPPARalpha (Homo sapiens, UniProt Q07869); experiment: Gal4-hPPARalpha transactivation assay in COS-7 cells (luciferase); conditions: for Emax: COS-7, maximal relative activation vs reference, read-out: Gal4-hPPARα(LBD) TOP (% ref); for EC50: Gal4-hPPARα(LBD) transactivation; for Gal4-hPPARα(LBD) TOP (% ref): maximal relative activation vs reference
T1 construct: Gal4-hPPARα(LBD); Gal4 (fusion partner); expressed in transfected cells; host or cells: COS-7 (monkey kidney)
T1 sequence (Q07869 239-466 limits assumed): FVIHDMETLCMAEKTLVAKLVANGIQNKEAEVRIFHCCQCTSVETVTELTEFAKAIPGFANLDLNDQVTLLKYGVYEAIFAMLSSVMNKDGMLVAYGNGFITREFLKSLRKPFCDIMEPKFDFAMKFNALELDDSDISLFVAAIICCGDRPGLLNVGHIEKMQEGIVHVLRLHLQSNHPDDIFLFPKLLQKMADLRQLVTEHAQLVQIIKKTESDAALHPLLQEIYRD
Description: (§1) Monkey kidney COS-7 cells were maintained in standard culture conditions (Dulbecco's modified Eagle's minimal medium: DMEM) supplemented with 10% fetal calf serum, 1% sodium pyruvate, 1% essential amino acids and 1% antibiotics at 37° C. in a humidified atmosphere of 5% C02 and 95% air. The medium was changed every 2 days. All tested compounds were dissolved in DMSO. Cells were transfected using 2 μl JetPEI™ (Polyplus transfection)/μg of DNA. Briefly, 40 μg of DNA was transfected in a 225 cm^2 culture flask of adherent COS-7 cells (respecting the 1/50 ratio between the Gal4(RE)_TkpGL3 plasmid and the plasmid coding the nuclear receptor of interest (pGal4-hPPARalpha, pGal4-hPPARgamma, pGal4-hPPARdelta, pGal4-mPPARalpha, pGal4-mPPARgamma and pGal4-mPPARdelta) or of the pGal4phi plasmid (negative control). Cells were enzymatically detached and seeded in 384 well plates at the density of 20,000 cells/well and then incubated for 4 hours at 37° C. The activation was automatically performed, by using the Genesis Freedom 200™ (Tecan), in fresh medium supplemented with 2% of synthetic serum, free of lipids (Ultroser™, Biosepra) supplemented with the tested compounds (compound of interest or reference molecules) or vehicle (DMSO 0.1%). The luciferase activity was measured with the Steady-Glo Luciferase Assay System (Promega, Madison, Wis.). All transactivation experiments were performed at least 2 times. Activation curves were realized using SigmaPlot® (version 7.0 from SPSS Inc.) software and took into account all the experimental points. SimgaPlot® was also used to fit the standard curves and then determine the specific EC50 values, maximum effect versus reference molecules and Hill slope. The Emax effect of each new ligand is represented as the ratio of the maximal induction (plateau) obtained with the new ligand and the induction obtained with the corresponding reference compound. The reference compounds for PPARalpha, PPARgamma and PPARdelta were fenofibrate (100 μM), rosiglitazone (10 μM) and GW501516 (1 μM).

[2] = target: T2, hPPARgamma (Homo sapiens, UniProt P37231); experiment: Gal4-hPPARgamma transactivation assay in COS-7 cells (luciferase); conditions: for Emax: COS-7, maximal relative activation vs reference, read-out: Gal4-hPPARγ(LBD) TOP (% ref); for EC50: Gal4-hPPARγ(LBD) transactivation; for Gal4-hPPARγ(LBD) TOP (% ref): maximal relative activation vs reference
T2 construct: Gal4-hPPARγ(LBD); Gal4 (fusion partner); expressed in transfected cells; host or cells: COS-7 (monkey kidney)
T2 sequence (P37231 238-503 limits assumed): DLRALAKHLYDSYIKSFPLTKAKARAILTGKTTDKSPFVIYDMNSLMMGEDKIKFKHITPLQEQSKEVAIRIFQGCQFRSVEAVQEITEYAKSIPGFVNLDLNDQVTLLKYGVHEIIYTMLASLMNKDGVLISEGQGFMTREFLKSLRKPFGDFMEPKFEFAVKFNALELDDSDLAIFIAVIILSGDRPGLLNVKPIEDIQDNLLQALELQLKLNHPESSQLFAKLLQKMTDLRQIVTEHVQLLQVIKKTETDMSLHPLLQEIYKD
Description: as §1

[3] = target: T3, hPPARdelta (Homo sapiens, UniProt Q03181); experiment: Gal4-hPPARdelta transactivation assay in COS-7 cells (luciferase); conditions: for Emax: COS-7, maximal relative activation vs reference, read-out: Gal4-hPPARδ(LBD) TOP (% ref); for EC50: Gal4-hPPARδ(LBD) transactivation; for Gal4-hPPARδ(LBD) TOP (% ref): maximal relative activation vs reference
T3 construct: Gal4-hPPARδ(LBD); Gal4 (fusion partner); expressed in transfected cells; host or cells: COS-7 (monkey kidney)
T3 sequence (Q03181 211-439 limits assumed): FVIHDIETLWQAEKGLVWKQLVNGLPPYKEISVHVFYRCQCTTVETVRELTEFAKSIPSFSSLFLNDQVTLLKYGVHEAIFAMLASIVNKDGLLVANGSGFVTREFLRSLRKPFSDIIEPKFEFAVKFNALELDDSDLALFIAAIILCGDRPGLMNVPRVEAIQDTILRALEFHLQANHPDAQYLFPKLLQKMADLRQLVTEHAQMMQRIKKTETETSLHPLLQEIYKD
Description: as §1

Row | Compound | Emax [1] | EC50 [1] | Emax [2] | EC50 [2] | Emax [3] | EC50 [3] | also measured
1 | CCOC(c1ccc(OC(F)(F)F)cc1)C1CC1c1cc(C)c(OC(C)(C)C(=O)O)c(C)c1 (racemic) [Cpd 10-1, 2-(4-(2-(ethoxy(4-(trifluoromethoxy)phenyl)methyl)cyclopropyl)-2,6-dimethylphenoxy)-2-methylpropanoic acid] | 51% | 38 nM | 74% | 95 nM | 90% | 14 nM | 
2 | COC(c1ccc(OC(F)(F)F)cc1)C1CC1c1ccc(OC(C)(C)C(=O)O)c(Br)c1 (racemic) [Cpd 19-1, 2-(2-bromo-4-(2-(methoxy(4-(trifluoromethoxy)phenyl)methyl)cyclopropyl)phenoxy)-2-methylpropanoic acid] | 53% | 157 nM | 64% | 97 nM | 100% | 26 nM | 
3 | CCCCOC(c1ccc(OC(F)(F)F)cc1)C1CC1c1cc(C)c(OC(C)(C)C(=O)O)c(C)c1 (single isomer, unassigned) [Cpd 5-1, 2-(4-(2-(butyloxy(4-(trifluoromethoxy)phenyl)methyl)cyclopropyl)-2,6-dimethylphenoxy)-2-methylpropanoic acid] | 44% | 47 nM | 84% | 143 nM | 62% | 34 nM | 
4 | COC(c1ccc(C(F)(F)F)cc1F)C1CC1c1cc(C)c(OC(C)(C)C(=O)O)c(C)c1 (single isomer, unassigned) [Cpd 12-1, 2-(4-(2-(methoxy(2-fluoro-4-(trifluoromethyl)phenyl)methyl)cyclopropyl)-2,6-dimethylphenoxy)-2-methylpropanoic acid] | 47% | 53 nM | 71% | 12 nM | 89% | 7 nM | 
5 | Cc1cc(C2CC2C(OCc2ccccc2)c2ccc(OC(F)(F)F)cc2)cc(C)c1OC(C)(C)C(=O)O (single isomer, unassigned) [Cpd 11-1, 2-(4-(2-(benzyloxy(4-(trifluoromethoxy)phenyl)methyl)cyclopropyl)-2,6-dimethylphenoxy)-2-methylpropanoic acid] | 46% | 21 nM | 86% | 116 nM | 75% | 79 nM | 
6 | COc1cc(OC(F)(F)F)ccc1C(OC)C1CC1c1cc(C)c(OC(C)(C)C(=O)O)c(C)c1 (racemic) [Cpd 17-1, 2-(4-(2-(methoxy(2-methoxy-4-(trifluoromethoxy)phenyl)methyl)cyclopropyl)-2,6-dimethylphenoxy)-2-methylpropanoic acid] | 49% | 38 nM | 75% | 12 nM | 86% | 6 nM | 
7 | COC(c1ccc(OC(F)(F)F)cc1)C1CC1c1ccc(OC(C)(C)C(=O)O)c(C(C)C)c1 (single isomer, unassigned) [Cpd 15-2, 2-(2-isopropyl-4-(2-(methoxy(4-(trifluoromethoxy)phenyl)methyl)cyclopropyl)phenoxy)-2-methylpropanoic acid] |  | 145 nM |  | 46 nM |  | 123 nM | 
8 | CCCCOC(c1ccc(OC(F)(F)F)cc1)C1CC1c1cc(C)c(OC(C)(C)C(=O)O)c(C)c1 (single isomer, unassigned) [Cpd 5-2, 2-(4-(2-(butyloxy(4-(trifluoromethoxy)phenyl)methyl)cyclopropyl)-2,6-dimethylphenoxy)-2-methylpropanoic acid] |  | 54 nM |  | 21 nM |  | 57 nM | 
9 | COC(c1ccccc1OC(F)(F)F)C1CC1c1cc(C)c(OC(C)(C)C(=O)O)c(C)c1 (single isomer, unassigned) [Cpd 13-2, 2-(4-(2-(methoxy(2-(trifluoromethyloxy)phenyl)methyl)cyclopropyl)-2,6-dimethylphenoxy)-2-methylpropanoic acid] |  | 623 nM |  | 9 nM |  | 214 nM | 
10 | COC(c1ccc(OC(F)(F)F)cc1)C1CC1c1cc(C)c(OC(C)(C)C(=O)O)c(C)c1 (stereo not shown) [Cpd 14-2-2, 2-(4-(2-(methoxy(4-(trifluoromethoxy)phenyl)methyl)cyclopropyl)-2,6-dimethylphenoxy)-2-methylpropanoic acid] |  |  |  |  |  |  | EC50 ([1]; listed as cpd 14-2-2): 17 nM; Gal4-hPPARγ(LBD) TOP (% ref) ([2]; listed as cpd 14-2-2): 72 % ref; EC50 ([3]; listed as cpd 14-2-2): 59 nM; Gal4-hPPARδ(LBD) TOP (% ref) ([3]; listed as cpd 14-2-2): 57 % ref
11 | COC(c1ccc(OC(F)(F)F)cc1)C1CC1c1cc(C)c(OC(C)(C)C(=O)O)c(C)c1 (racemic) [Cpd 14-2, 2-(4-(2-(methoxy(4-(trifluoromethoxy)phenyl)methyl)cyclopropyl)-2,6-dimethylphenoxy)-2-methylpropanoic acid] |  |  |  |  |  |  | Gal4-hPPARα(LBD) TOP (% ref) ([1]; listed as cpd 14-2): 58 % ref; Gal4-hPPARγ(LBD) TOP (% ref) ([2]; listed as cpd 14-2): 58 % ref; Gal4-hPPARδ(LBD) TOP (% ref) ([3]; listed as cpd 14-2): 74 % ref

Second part, led by results:

Row | Emax [1] | EC50 [1] | Emax [2] | EC50 [2] | Emax [3] | EC50 [3] | Compound | also measured
12 | 35% | 635 nM | 72% | 110 nM | 85% | 152 nM | COC(c1ccc(C)cc1)C1CC1c1cc(C)c(OC(C)(C)C(=O)O)c(C)c1 (racemic) [Cpd 2-1, 2-(4-(2-(methoxy(4-methylphenyl)methyl)cyclopropyl)-2,6-dimethylphenoxy)-2-methylpropanoic acid] | 
13 | 57% | 105 nM | 79% | 35 nM | 77% | 54 nM | COC(c1ccc(SC)cc1)C1CC1c1cc(C)c(OC(C)(C)C(=O)O)c(C)c1 (single isomer, unassigned) [Cpd 3-1, 2-(4-(2-(methoxy(4-(methylthio)phenyl)methyl)cyclopropyl)-2,6-dimethylphenoxy)-2-methylpropanoic acid] | 
14 |  | 211 nM |  | 81 nM |  | 27 nM | COC(c1ccc(OC(F)(F)F)cc1)C1CC1c1cc(C)c(OC(C)(C)C(=O)O)c(C)c1 (single isomer, unassigned) [Cpd 14-1-1, 2-(4-(2-(methoxy(4-(trifluoromethoxy)phenyl)methyl)cyclopropyl)-2,6-dimethylphenoxy)-2-methylpropanoic acid] | Gal4-hPPARα(LBD) TOP (% ref) ([1]; listed as cpd 14-1-1): 43 % ref; Gal4-hPPARγ(LBD) TOP (% ref) ([2]; listed as cpd 14-1-1): 78 % ref; Gal4-hPPARδ(LBD) TOP (% ref) ([3]; listed as cpd 14-1-1): 67 % ref
15 | 50% | 10 nM | 77% | 11 nM | 89% | 14 nM | COC(c1ccc(SC(F)(F)F)cc1)C1CC1c1cc(C)c(OC(C)(C)C(=O)O)c(C)c1 (racemic) [Cpd 9-1, 2-(4-(2-(methoxy(4-(trifluoromethylthio)phenyl)methyl)cyclopropyl)-2,6-dimethylphenoxy)-2-methylpropanoic acid] | 
